Test results taken from patent US20040044006A1, “Methods of use of quinolone compounds against pneumococcal and haemophilus bacteria” (priority 1999, published 2004).
Where two headings read alike, the source gives them in different places.

Experiments:
[1] = system: quinolone susceptible pneumococci (ciprofloxacin MICs ≦4.0 μg/ml); assay: Agar dilution MICs of 207 quinolone susceptible pneumococcal strains; assay type: cell-based, Streptococcus pneumoniae; conditions: Streptococcus pneumoniae, agar dilution; for MIC90: read-out: MIC90; for MIC: read-out: MIC range
In short: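 Agar dilution MICs by prior methods on Mueller-Hinton agar with 5% sheep blood; S. pneumoniae ATCC 49619 among QC strains each run. Isolates were recent U.S. strains plus some from South Africa, Europe and Korea.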

[2] = system: pneumococci with ciprofloxacin MICs ≧8 μg/ml; assay: Quinolone agar dilution MICs of 28 ciprofloxacin resistant pneumococcal strains, correlated with QRDR mutations; assay type: cell-based, Streptococcus pneumoniae
Description: Additionally these strains were tested for mutations in parC, gyrA, parE, and gyrB (Pan, et al. Antimicrob. Agents Chemother. 40:2321-2326, 1996) and for efflux mechanism (Brenwald, et ail., Antimicrob. Agents Chemother. 42:2032-2035, 1998).
Gemifloxacin susceptibility powder was obtained from SmithKline Beecham Laboratories, Harlow, UK. Agar dilution methodology was performed on 28 strains as described previously (M. R. Jacobs, Clin. Infect. Dis. 15: 119-127, […] and M. R. Jacobs, Rev. Med. Microbiol. 6:77-93, 1995), using Mueller-Hinton altar (BBL Microbiology Systems, Cockeysville, Md.) supplemented with 5% sheep blood. Standard quality control strains, including Streptococcus pneumoniae ATCC 49619, were included in each run of agar dilution MICs.

pneumococcal strains = assay: Microbroth dilution MICs of strains tested by time-kill and PAE; assay type: cell-based; conditions: Streptococcus pneumoniae, read-out: Microdilution MIC
In short: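 S. pneumoniae ATCC 49619 served as control in each run. For the 12 time-kill and 6 PAE strains, MICs came from NCCLS microbroth dilution using cation-adjusted Mueller-Hinton broth plus 5% lysed defibrinated horse blood.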

[3] = all 207 strains (64 penicillin susceptible, 68 intermediate, 75 resistant)
[4] = agar dilution, 28 strains with ciprofloxacin MICs ≧8.0 μg/ml

C[C@@H]1CN(c2c(F)c(N)c3c(=O)c(C(=O)O)cn(C4CC4)c3c2F)C[C@H](C)N1 [Sparfloxacin, sparfloxacin]
> 1 µg/mL: MIC ([2]; Streptococcus pneumoniae, read-out: MICs in strains with three or four QRDR mutations, 20 strains, bound holds in all 20 (ciprofloxacin, levofloxacin, sparfloxacin), 19 (grepafloxacin), 10 (trovafloxacin), 18 (gemifloxacin))
32 µg/mL: MIC (pneumococcal strains; strain 3 (S) penicillin susceptible, quinolone-resistant)
1 µg/mL: MIC90 ([1]; Penicillin S strains) | MIC ([2]; Streptococcus pneumoniae, strain 3, ParC D83-N, ParE I460-V, GyrA S81-F, GyrB None) | MIC ([2]; Streptococcus pneumoniae, strain 3, ParC D83-N, ParE I460-V, GyrA S83-F, GyrB None) | MIC ([2]; Streptococcus pneumoniae, strain 4, ParC S79-F, ParE I460-V, GyrA S81-F, GyrB None) | MIC ([2]; Streptococcus pneumoniae, strain 4, ParC S79-F, ParE I460-V, GyrA S83-F, GyrB None) | MIC ([2]; Streptococcus pneumoniae, strain 5, ParC R95-C, ParE D435-N, GyrA S81-F, GyrB None) | MIC ([2]; Streptococcus pneumoniae, strain 5, ParC R95-C, ParE D435-N, GyrA S83-F, GyrB None) | MIC ([2]; Streptococcus pneumoniae, strain 7, ParC None, ParE I460-V, GyrA None, GyrB None) | MIC ([2]; Streptococcus pneumoniae, strain 8, ParC S79-Y, ParE None, GyrA None, GyrB None) | MIC ([2]; Streptococcus pneumoniae, strain 12, ParC S79-F, ParE I460-V, GyrA None, GyrB D435-N)
0.25 µg/mL: MIC (pneumococcal strains; strain 2 (S) penicillin susceptible) | MIC (pneumococcal strains; strain 6 (I) penicillin intermediate) | MIC (pneumococcal strains; strain 7 (I) penicillin intermediate) | MIC (pneumococcal strains; strain 8 (I) penicillin intermediate) | MIC (pneumococcal strains; strain 10 (I)) | MIC (pneumococcal strains; strain 11 (R) penicillin resistant)
0.03 to 1 µg/mL: MIC ([1]; Penicillin S strains)
0.06 to 2 µg/mL: MIC ([1]; Penicillin I strains)
0.125 µg/mL: MIC (pneumococcal strains; strain 1 (S) penicillin susceptible)
0.06 to 1 µg/mL: MIC ([1]; Penicillin R strains)
≥ 1 µg/mL: MIC ([2]; Streptococcus pneumoniae, read-out: MICs in strains with three or four QRDR mutations, 21 strains, bound holds in all 21 (ciprofloxacin, levofloxacin, sparfloxacin), 20 (grepafloxacin), 11 (trovafloxacin), 19 (gemifloxacin))
> 32 µg/mL: MIC ([2]; Streptococcus pneumoniae, strain 26, ParC S79-F, ParE None, GyrA S81-Y, GyrB None) | MIC ([2]; Streptococcus pneumoniae, strain 26, ParC S79-F, ParE None, GyrA S83-Y, GyrB None) | MIC ([2]; Streptococcus pneumoniae, strain 27, ParC S79-Y, ParE I460-V, GyrA S81-F, GyrB None) | MIC ([2]; Streptococcus pneumoniae, strain 27, ParC S79-Y, ParE I460-V, GyrA S83-F, GyrB None) | MIC ([2]; Streptococcus pneumoniae, strain 28, ParC D83-G N91-D, ParE None, GyrA S81-F S114-G, GyrB None) | MIC ([2]; Streptococcus pneumoniae, strain 28, ParC cell empty, ParE None, GyrA S83-F and S116-G, GyrB None)
2 µg/mL: MIC ([2]; Streptococcus pneumoniae, strain 9, ParC S79-Y, ParE None, GyrA None, GyrB None)
0.5 µg/mL: MIC50 ([1]; Penicillin I strains) | MIC90 ([1]; Penicillin I strains) | MIC50 ([1]; Penicillin R strains) | MIC90 ([1]; Penicillin R strains) | MIC50 ([1]; Penicillin S strains) | MIC50 [1, 3] | MIC90 [1, 3] | MIC (pneumococcal strains; strain 5 (I) penicillin intermediate) | MIC (pneumococcal strains; strain 9 (R) penicillin resistant) | MIC (pneumococcal strains; strain 12 (R) penicillin resistant)
16.0 µg/mL: MIC90 [2, 4]
16 µg/mL: MIC90 ([2]; Streptococcus pneumoniae) | MIC (pneumococcal strains; strain 4 (S) penicillin susceptible, quinolone-resistant)
8.0 µg/mL: MIC50 [2, 4]
4 µg/mL: MIC ([2]; Streptococcus pneumoniae, strain 1, ParC S79-F, ParE I460-V, GyrA S81-F, GyrB None) | MIC ([2]; Streptococcus pneumoniae, strain 1, ParC S79-F, ParE I460-V, GyrA S83-F, GyrB None) | MIC ([2]; Streptococcus pneumoniae, strain 10, ParC S79-F, ParE I460-V, GyrA S81-C, GyrB None) | MIC ([2]; Streptococcus pneumoniae, strain 10, ParC S79-F, ParE I460-V, GyrA S83-C, GyrB None) | MIC ([2]; Streptococcus pneumoniae, strain 11, ParC S79-F, ParE I460-V, GyrA S81-F, GyrB None) | MIC ([2]; Streptococcus pneumoniae, strain 11, ParC S79-F, ParE I460-V, GyrA S83-F, GyrB None)
8 µg/mL: MIC50 ([2]; Streptococcus pneumoniae) | MIC ([2]; Streptococcus pneumoniae, strain 6, ParC S79-Y, ParE I460-V, GyrA E85-K, GyrB None) | MIC ([2]; Streptococcus pneumoniae, strain 6, ParC S79-Y, ParE I460-V, GyrA E87-K, GyrB None) | MIC ([2]; Streptococcus pneumoniae, strain 13, ParC S79-F, ParE I460-V, GyrA None, GyrB E474-K) | MIC ([2]; Streptococcus pneumoniae, strain 14, ParC S79-F, ParE I460-V, GyrA S81-F, GyrB None) | MIC ([2]; Streptococcus pneumoniae, strain 14, ParC S79-F, ParE I460-V, GyrA S83-F, GyrB None) | MIC ([2]; Streptococcus pneumoniae, strain 15, ParC 79-F, ParE I460-V, GyrA S83-F, GyrB None) | MIC ([2]; Streptococcus pneumoniae, strain 15, ParC S79-F, ParE I460-V, GyrA S81-F, GyrB None) | MIC ([2]; Streptococcus pneumoniae, strain 16, ParC S79-F, ParE I460-V, GyrA S81-F, GyrB None) | MIC ([2]; Streptococcus pneumoniae, strain 16, ParC S79-F, ParE I460-V, GyrA S83-F, GyrB None) | MIC ([2]; Streptococcus pneumoniae, strain 17, ParC D83-N, ParE None, GyrA S81-F, GyrB None) | MIC ([2]; Streptococcus pneumoniae, strain 17, ParC D83-N, ParE None, GyrA S83-F, GyrB None) | MIC ([2]; Streptococcus pneumoniae, strain 18, ParC S79-F, ParE I460-V, GyrA S81-F, GyrB None) | MIC ([2]; Streptococcus pneumoniae, strain 18, ParC S79-F, ParE I460-V, GyrA S83-F, GyrB None) | MIC ([2]; Streptococcus pneumoniae, strain 19, ParC S79-F, ParE I460-V, GyrA S81-F, GyrB None) | MIC ([2]; Streptococcus pneumoniae, strain 19, ParC S79-F, ParE I460-V, GyrA S83-F, GyrB None) | MIC ([2]; Streptococcus pneumoniae, strain 20, ParC S79-F, ParE I460-V, GyrA E85-K, GyrB None) | MIC ([2]; Streptococcus pneumoniae, strain 20, ParC S79-F, ParE I460-V, GyrA E87-K, GyrB None) | MIC ([2]; Streptococcus pneumoniae, strain 21, ParC S79-F, ParE I460-V, GyrA S81-F, GyrB None) | MIC ([2]; Streptococcus pneumoniae, strain 21, ParC S79-F, ParE I460-V, GyrA S83-F, GyrB None) | MIC ([2]; Streptococcus pneumoniae, strain 22, ParC S79-F, ParE I460-V, GyrA S81-Y, GyrB None) | MIC ([2]; Streptococcus pneumoniae, strain 22, ParC S79-F, ParE I460-V, GyrA S83-Y, GyrB None) | MIC ([2]; Streptococcus pneumoniae, strain 23, ParC S79-Y, ParE None, GyrA S81-A, GyrB None) | MIC ([2]; Streptococcus pneumoniae, strain 23, ParC S79-Y, ParE None, GyrA S83-A, GyrB None)
